Here are results for three compounds from US5932568A, “6-methoxy-1H-benzotriazole-5-carboxamide derivatives and pharmaceutical compositions containing them” (priority 1994, dated 1999).

Data set [1] deals with apomorphine-induced vomiting. In words: Inhibitory effect on apomorphine-induced vomiting. It counts as in vivo, dogs (Beagle). As to conditions: 2 h before s.c. apomorphine hydrochloride 0.3 mg/kg, emetic episodes 1 h. As for the experimental part: A group of 3-4 dogs (Beagle, 8-15 kg) was used for examining inhibitory effects of the test compounds on apomorphine-induced vomiting according to the method of Chen and Ensor [cf. J. Pharmacol. Exp. Ther., 98, 245-250 (1950)]. Test compounds, dissolved or suspended in a 0.5% tragacanth solution were orally administered two hours before the subcutaneous administration of apomorphine hydrochloride (0.3 mg/kg). Then, the emetic episodes were counted for one hour. The emetic episodes of the compound-treated group were compared with those of the corresponding control (non-dosed) group, and the percent inhibition was calculated.

The subject of data set [2] is gastric emptying delayed by cholecystokinin. In words: Effect on gastric emptying delayed by cholecystokinin. It counts as in vivo, Male Wistar rats. The arrangement: key to Effect on gastric emptying delayed by cholecystokinin: +: slightly to moderately improved; ++: markedly improved; ±: no improvement. The following applies: for Effect on gastric emptying delayed by cholecystokinin: cholecystokinin 3 μg/kg s.c.; for Gastric emptying delayed by cholecystokinin (in words): compound 2: 30 or 100 mg/kg, 7b and Compound A: 10, 30 or 100 mg/kg. As for the experimental part: (§1) The test was carried out according to the method of Scarpignato et al. [c f. Arch. int. Pharmacodyn., 246, 286-294 (1980)]. Male Wistar rats, weighing 130-150 g, were fasted for 18 hours before experimentation, and 1.5 ml of a test meal (phenol red 0.05% in a 1.5% aqueous methylcellulose solution) was orally given. Fifteen minutes after administration of the meal the stomach was removed and the amount of phenol red remaining in the stomach was measured. The test compounds, 10, 30 or 100 mg/kg, each dissolved or suspended in a 0.5% tragacanth solution, were orally administrated 60 minutes before administration of the test meal. Gastric emptying was delayed by subcutaneous administration of cholesystokinin 3 μg/kg or morphine 3 mg/kg 5 minutes before the administration of phenol red. The number of animals used was 5 to 10.

Data set [3] has as its system gastrointestinal motility. In words: Effect on gastrointestinal motility in conscious dog. As to conditions: 3 and 10 mg/kg intragastric; fed state, conscious dogs. It counts as in vivo, beagle dogs. As for the experimental part:
Four healthy beagle dogs per group of both sexes weighing 10 to 12 kg were anesthetized with an i.v. injection of pentobarbital sodium (Nembutal, 30 mg/kg b. wt.), and the abdominal cavity was opened under aseptic conditions. Extraluminal force transducers were sutured onto the seromuscular layer of the gastric antrum, 3 cm proximal to the pyloric ring, the duodenum, the jejunum, the […] terminal ileum in a manner to measure circular muscle contraction, following the method of Ito et al., [cf. Gastrointerol. Japan. 12, 275-283 (1977).] For intragastric (i.g.) administration of drugs, a Silastic tube (Fr. size 6.5) was inserted into the lumen of the gastric body, and the tube was fixed onto the adjacent serosa. The lead wires of these transducers and gastric tube were taken out of abdominal cavity and then brought out through a skin incision made between the scapulae. The outer ends of the lead wires were sutured onto the skin adjacent to the skin incision. After the operation, jacket protector was placed on the dog to protect the lead wires and the Silastic tube. The dogs were housed in individual experimental cages and given dog food at 10 a.m., and water was given freely. Test compounds at 3 and 10 mg/kg were suspended in 0.5% tragacanth solution and given i.g. through the indwelling Silastic tube.

A further data set concerns exploratory activity. Briefly: Inhibitory effect on exploratory activity. It counts as in vivo, male mice (Std-ddy strain). As to conditions: oral, 2 h before test, 3 min counting, Probit. From the text:
A group of 5 male mice (Std-ddy strain, 20-25 g) was used. Two hours after oral administration of the test compounds in the form of 0.5% tragacanth solution or suspension, mice were placed individually in a test box (23×35×30 cm) on Animex activity meter (Farad Co.). Immediately thereafter, activity counting was started and lasted for three minutes. The mean counts of the compound-treated group were compared with those of the corresponding control (non-dosed) group, and the percent inhibition was calculated and the 50% inhibitory dose (ID50) was obtained according to the method of Probit.

Another data set is described as follows: in vivo. The following applies: mouse, oral, mice, 7 days observation.
The test system of data set [4] is gastrointestinal motility. In words: Gastrointestinal motility improving activity (overall statement). As to conditions: in vivo.
Another data set relates to gastric emptying. Briefly: Gastric emptying enhancing activity. It counts as in vivo, Male Wistar rats. The following applies: 3 mg/kg oral, 60 min before test meal; increase from control. As for the experimental part:
The test was carried out according to the method of Scarpignato et al. [cf. Arch. Int. Pharmacodyn., 246, 286-294 (1980)]. Male Wistar rats, weighing 130-150 g, were fasted for 18 hours before experimentation, and 1.5 ml of a test meal (phenol red 0.05% in a 1.5% aqueous methylcellulose solution) was orally given. Fifteen minutes after administration of the meal the stomach was removed and the amount of phenol red remaining in the stomach was measured. The test compounds, dissolved or suspended in a 0.5% tragacanth solution, were orally administered 60 minutes before administration of the test meal. The rate of gastric emptying was calculated according to the amount of phenol red remaining in the stomach, and the activity of the test compounds was expressed in terms of increase in the emptying rate from the control.

Data set [5] relates to gastric emptying delayed by morphine. Briefly: Effect on gastric emptying delayed by morphine. As to conditions: for Effect on gastric emptying delayed by morphine: morphine 3 mg/kg s.c. The arrangement: key to Effect on gastric emptying delayed by morphine: +: slightly to moderately improved; ++: markedly improved; ±: no improvement. Type of data set: in vivo, Male Wistar rats. As for the experimental part: as §1

In a further data set the test system is dopamine D2 receptor. The following applies: cited from earlier work.

Counter-ions that a name gives are not always drawn. A value given as a limit tells only on which side of the number the result lay.

One may read the inhibition in vivo as how much of the control response was suppressed. As a reminder, the LD50 is the dose expected to kill half of the subjects tested. Take `CCN1CCCC[C@@H](NC(=O)c2cc3nnn(C)c3cc2OC)C1` [Compound 2, (R)-N-(1-ethyl-1H-hexahydroazepin-3-yl)-6-methoxy-1-methyl-1H-benzotriazole-5-carboxamide]: the inhibition in vivo at 0.1 mg/kg in data set [1] (Canis lupus familiaris, po, 1 h, 0.1 mg/kg oral) amounted to 80%. Moreover, the inhibition in vivo at 1 mg/kg in data set [1] (Canis lupus familiaris, po, 1 h, 1.0 mg/kg oral) stood at 100%. Besides, the “Effect on gastric emptying delayed by cholecystokinin” value in data set [2] (30 mg/kg oral) is “+”; in [2] (100 mg/kg oral) it was “++”. For the same compound, the “Gastric emptying delayed by cholecystokinin (in words)” value in data set [2] was “significantly improved gastric emptying delayed by cholecystokinin”. For the same compound, the Interdigestive migrating like-contractions entry in data set [3] was “caused interdigestive migrating like-contractions in fed state in conscious dogs”. Also, the ED50 in the data set with exploratory activity (Mus musculus, read-out: ID50 (inhibition of exploratory activity)) was more than 100 mg/kg. The compound also returned an LD50 at 168 h in “in vivo” of 688 mg/kg. Moreover, the “Gastrointestinal motility improving activity (in words)” value in data set [4] is listed as “especially excellent gastrointestinal motility improving activity”. For the same compound, the “Increase in gastric emptying rate” value in the data set on gastric emptying was found to be 41%.
As for `CCN1CCCC[C@@H](NC(=O)c2cc3nn[nH]c3cc2OC)C1` [Compound 7b, (R)-N-(1-ethyl-1H-hexahydroazepin-3-yl)-6-methoxy-1H-benzotriazole-5-carboxamide.3/2 fumarate], the “Inhibition of apomorphine-induced vomiting” value in data set [1] (0.1 mg/kg oral) was determined as 69%; in data set [1] (1.0 mg/kg oral), 100%. Further, the “Effect on gastric emptying delayed by morphine” value in data set [5] (10 mg/kg oral) is reported as “+”; in data set [5] (30 mg/kg oral), “++”; in data set [5] (100 mg/kg oral), “++”. In addition, the “Gastric emptying delayed by morphine (in words)” value in data set [5] (10, 30 or 100 mg/kg) is listed as “significantly improved gastric emptying delayed by cholecystokinin or morphine”. For the same compound, the “Effect on gastric emptying delayed by cholecystokinin” value is “+” in data set [2] (10 mg/kg oral), “++” in data set [2] (30 mg/kg oral) and “++” in data set [2] (100 mg/kg oral). Further, the “Gastric emptying delayed by cholecystokinin (in words)” value in [2] is “significantly improved gastric emptying delayed by cholecystokinin or morphine”. Moreover, in data set [3], the Interdigestive migrating like-contractions entry is “caused interdigestive migrating like-contractions in fed state in conscious dogs”. In addition, in the data set with exploratory activity, the “ID50 (inhibition of exploratory activity)” value is reported as more than 100 mg/kg. This compound showed an LD50 at 168 h in the data set “in vivo” of 945 mg/kg. In addition, the “Gastrointestinal motility improving activity (in words)” value in [4] was “especially excellent gastrointestinal motility improving activity”. In addition, the “Increase in gastric emptying rate” value in the data set with gastric emptying came to 34%.
As for `CCN(CC)CCNC(=O)c1cc(Cl)c(N)cc1OC` [metoclopramide, 4-amino-5-chloro-N-[2-(diethylamino)ethyl]-2-methoxybenzamide], the “Dopamine D2 receptor antagonistic activity” value with dopamine D2 receptor is “dopamine D2 receptor antagonistic activity”. Besides, the CNS depressant activity result in the data set with dopamine D2 receptor (derived from dopamine D2 receptor antagonistic activity) is “possesses CNS depressant activity”.
